Reference: patent US9987294B2, “Mitochondria-targeted anti-tumor agents” (University of Massachusetts, priority 2007, dated 2018)
“Also recorded” adds a separate entry of the source.

Key:
Raji cells = assay: Mitochondrial membrane potential in JC-1-loaded cells (flow cytometry); assay type: cell-based, human; conditions: within five minutes of addition
Procedure: Raji cells were treated with Shepherdin or control scrambled peptidomimetic (100 μM) or 17-AAG (5 μM), loaded with the mitochondrial membrane potential-sensitive fluorescent dye JC-1, and analyzed for changes in green/red fluorescence ratio by flow cytometry. For experiments in a cell-free system, purified mitochondria isolated from primary normal cells, various tumor cells types, or normal mouse organs were suspended in SB buffer. […] For these experiments, TMRM-loaded mitochondria in SB buffer were allowed to reach stable fluorescence, which was set as fully polarized state (maximum membrane potential). The fluorescence intensity after treatment with 2 mM CaCl2 was set as minimum membrane potential (fully depolarized state). Changes in fluorescence intensity after each treatment were plotted as a ratio between maximum and minimum membrane potential.

[1] = test system: isolated tumor mitochondria; assay: Inner membrane potential of TMRM-loaded tumor mitochondria; assay type: biochemical
Procedure: (§1) The fluorescence intensity after treatment with 2 mM CaCl2 corresponded to a fully depolarized state. Alternatively, H460 cells were labeled with the fluorescent dye JC-1 (Molecular Probes), and analyzed for changes in red/green (F1-2/F1-1) fluorescence ratio after treatment with the various agents, by multiparametric flow cytometry. Cytochrome c content in pellets or supernatants of drug-treated isolated mitochondria was determined by Western blotting.

SKBr3 cells = assay: Dead cells by Trypan blue staining, SKBr3; assay type: cell-based; conditions: 10 μM
HeLa cells = assay: Cytochrome c release into the cytosol of treated tumor cells (Western blotting); assay type: cell-based, human
tumor mitochondria = assay: Cytochrome c release from drug-treated isolated tumor mitochondria; assay type: biochemical
Procedure: Tumor cell types were treated with controls or the various Hsp90 antagonists, and cytosolic extracts were harvested at increasing time intervals between 5-30 minutes and analyzed by Western blotting. For experiments in a cell-free system, purified mitochondria (20 μg) were suspended in 500 μl of SB buffer (0.2 M sucrose, 10 mM Tris-MOPS, pH 7.4, 5 mM succinate, 1 mM sodium phosphate, 10 μM EGTA-Tris, and 2 μM rotenone). […] At the end of each incubation reaction, mitochondria and supernatants were separated by centrifugation at 6,000×g for 10 minutes, and analyzed by Western blotting.
as §1

[2] = test system: Akt, Chk1 and Hsp70 in HeLa cells; assay: Hsp90 client protein and Hsp70 levels in treated cells (Western blotting); assay type: cell-based, human; conditions: 5 μM for 24 hours
Procedure: In other experiments, chaperone-dependent GST-Chk1 reconstitution was determined as described previously (Arlander et al., “Chaperoning checkpoint kinase 1 (Chk1), an Hsp90 client, with purified chaperones,” J Biol Chem, 281:2989-2998 (2006)). Briefly, each sample contained 0.7 μg of resin-bound GST-Chk1 (residues 1-265), 1 μg of purified human Hsp90α, and the following amounts of other purified chaperone proteins: 10 μg Hsp70, 2 μg Hdj1, 2 μg p50^cdc37, 0.06 units CK2, 2.5 μg p60^Hop. Optical densities due to Chk1-dependent phosphorylation of Cdc25 in the presence and absence of Gamitrinib or 17-AAG were determined and plotted as fold activation above the sample lacking added chaperone proteins. In some experiments, HeLa cells were treated with Gamitrinibs (G1-G4) or 17-AAG (5 μM) for 24 hours, and isolated extracts were analyzed for modulation of Akt or Hsp70 expression, by Western blotting

[3] = test system: breast adenocarcinoma SKBr3 cells; assay: Metabolic activity by MTT, SKBr3; assay type: cell-based; conditions: 10 μM; by 48 hours and throughout a 96-hours interval
Procedure: (§2) Modulation of cell viability was determined by MTT (Kang et al., “Regulation of tumor cell mitochondrial homeostasis by an organelle-specific Hsp90 chaperone network,” Cell, 131:257-270 (2007)). For determination of apoptosis, cells were analyzed for caspase activity (DEVDase activity) and plasma membrane integrity (propidium iodide) using CaspaTag (Intergen, Burlington, Mass.), by multiparametric flow cytometry (Kang et al., “Regulation of tumor cell mitochondrial homeostasis by an organelle-specific Hsp90 chaperone network,” Cell, 131:257-270 (2007)).

[4] = test system: H460 lung adenocarcinoma xenograft tumors; assay: Xenograft tumor growth, H460; assay type: in vivo, mice; conditions: i.p.; G4 and 17-AAG 2-3 mg/kg twice daily, G1 30-50 mg/Kg daily, TPP 10 mg/Kg daily
Procedure: To create the models used in this example, HL60 (10×10^6) or H460 (4×10^6) cells suspended in sterile PBS (200 μl) were injected subcutaneously into both flanks of 10 week-old CB17 SCID/beige (Taconic Farms) immunocompromised female mice. Alternatively, MDA-MB-231 cells (5×10^6) suspended in 200 μl of 50% Matrigel (BD Biosciences) were used for subcutaneous injection in CB17 SCID/beige mice. When superficial tumors reached volumes of 100-150 mm^3, animals were randomized in two groups (2 tumors/mouse, 3 animals/group), and treated with vehicle (DMSO) or Gamitrinib dissolved in 20% Cremophor EL (Sigma) in PBS by intraperitoneal (i.p.) injection. Gamitrinib-G4 was used as sterile i.p. injections with the following schedules: HL60 xenografts, 2 mg/Kg twice daily; H460 xenografts, 2 mg/kg twice daily for d 0, 2.5 mg/kg twice daily for d 1, 3.0 mg/kg twice daily for the duration of treatment; MDA-MB-231 xenografts, 2 mg/Kg twice daily for d 0-2, 2.5 mg/Kg twice daily for d 3-5, and 3 mg/Kg twice daily throughout the rest of the treatment. 17-AAG was dissolved in 20% Cremophor EL and used as systemic i.p. injections with the same dose-escalating regimen as Gamitrinib-G4 in H460 xenograft studies. Gamitrinib-G1 was used with following schedules: 30 mg/Kg daily (d 0-2), and 50 mg/Kg daily for the rest of treatment. Gamitrinib-TPP was used as i.p. injections at 10 mg/Kg daily throughout the duration of the experiment. Tumor measurements were taken daily with a caliper, and tumor volume was calculated with the formula ([length in millimeters]×[width in millimeters]^2)/2. Mice in the various treatment groups were weighed at the beginning and at the end of each experiment.

HeLa cell mitochondria = assay: Cytochrome c and Smac release from isolated tumor mitochondria (Western blotting); assay type: biochemical, human
Procedure: Tumor cell types were treated with controls or the various Hsp90 antagonists, and cytosolic extracts were harvested at increasing time intervals between 5-30 minutes and analyzed by Western blotting. For experiments in a cell-free system, purified mitochondria (20 μg) were suspended in 500 μl of SB buffer (0.2 M sucrose, 10 mM Tris-MOPS, pH 7.4, 5 mM succinate, 1 mM sodium phosphate, 10 μM EGTA-Tris, and 2 μM rotenone). Samples were treated with controls or the various Hsp90 antagonists for 20 minutes at 22° C. At the end of each incubation reaction, mitochondria and supernatants were separated by centrifugation at 6,000×g for 10 minutes, and analyzed by Western blotting.

[5] = test system: lung adenocarcinoma H460 cells; assay: Cell viability by MTT, H460; assay type: cell-based, human
Procedure: as §2

tumor cells = assay: Cell viability by MTT, tumor cell types; assay type: cell-based

`C=CCNC1=C2C[C@@H](C)C[C@H](OC)[C@H](O)[C@@H](C)/C=C(\C)[C@H](OC(N)=O)[C@@H](OC)/C=C\C=C(/C)C(=O)NC(=CC1=O)C2=O` [Gamitrinib 17-AAG, 17-allylamino-demethoxygeldamycin] was tested, and the “mitochondrial membrane potential in tumor cells” value (Raji cells) was “did not affect mitochondrial membrane potential in HeLa cells”, the “mitochondrial inner membrane potential” value [1] was “did not affect mitochondrial membrane potential” and the “tumor cell killing (dead cells)” value (SKBr3 cells) was “most SKBr3 cells treated with 17-AAG were still alive after 72 hours”. For the same molecule, the “cytochrome c release into the cytosol” value (HeLa cells) was “had no effect on cytochrome c release over a wide range of concentrations”, the “discharge of mitochondrial cytochrome c” value (tumor mitochondria; 20 minutes) was “ineffective” and the “cytochrome c release from mitochondria” value (tumor mitochondria; 3 hours (FIG. 16D)) was “had no effect on cytochrome c release”. The “expression of the chaperone Hsp70” value [2] was “increased expression of the chaperone Hsp70”, the “levels of client proteins Chk1 and Akt” value [2] was “destabilization of client proteins, Chk1 and Akt” and the metabolic activity [3] was “comparably reduced metabolic activity”. The tumor growth [4] was “had no effect on human lung cancer growth in mice”, the “cytochrome c or Smac release from isolated tumor mitochondria” value (HeLa cell mitochondria; HeLa cell mitochondria) was “did not induce cytochrome c or Smac release; also recorded: had no effect on mitochondrial integrity” and the “discharge of mitochondrial cytochrome c and Smac in the supernatant” value (HeLa cell mitochondria; high concentrations (20 μM)) was “a small discharge of mitochondrial cytochrome c, but not Smac”. The cell viability ([5]; 3 hour exposure) was “had no effect”, the cell viability ([5]; 24 hours) was “partial reduction in cell viability or cell proliferation” and the “tumor cell viability / killing” value (tumor cells; 1 hour exposure, MTT) was “had no effect on tumor cell viability within the same kinetics”. The tumor cell killing (tumor cells; prolonged exposure, 24 hours after treatment) was “partial cell killing; also recorded: modest anticancer activity”.
